Results taken from patent US20260242335A1, “HETEROCYCLOALKYL BETA-HYDROXY ALKYL AMINES FOR USE IN THE TREATMENT OF HYPERGLYCAEMIA AND DISORDERS CHARACTERISED BY HYPERGLYCAEMIA” (ATROGI AB, priority 2023, published 2026).
Counter-ions that a name gives are not always drawn.

Legend:
L6-myotubes [1] = assay: Measurement of intracellular cAMP levels (alpha screen cAMP kit) in differentiated cells, compared to isoproterenol; assay type: cell-based; conditions: 0.25 h, compound at 10 μM vs isoproterenol at 10 μM, 15 min stimulation, read-out: Biological example 2: intracellular cAMP level activity compared to that of isoproterenol
Experimental: (§1) L6-myoblasts were grown in Dulbecco's Modified Eagle's Medium (DMEM) containing 1 g/L glucose supplemented with 10% fetal bovine serum, 2 mM L-Glutamine, 50 U/mL penicillin, […] streptomycin and 10 mM HEPES. Cells were plated at 1×10^5 cells per mL in 24-well plates. After reaching 90% confluence the cells were grown in medium containing 2% FBS for 7 days where upon cells differentiated into myotubes.
Differentiated cells were serum-starved overnight and stimulated with an agonist, final concentration 1×10^−5 M, for 15 min in stimulation buffer (HBSS supplemented with 1% BSA, 5 mM HEPES and 1 mM IBMX, pH 7.4). The medium was aspirated and 100 μL of 95% EtOH was added to each well of the 24-well plate and cells were kept at −20° C. overnight. The EtOH was allowed to evaporate and 500 μL of lysis buffer (1% BSA, 5 mM HEPES and 0.3% Tween-20, pH 7.4) was added to each well. The plate was kept at −80° C. for 30 min and then at −20° C. until the day of detection when the samples were thawed. Intracellular cAMP levels were detected using an alpha screen cAMP kit (6760635D from Perkin Elmer). The activity for each compound is compared to that of isoproterenol.

L6-myotubes [2] = assay: Glucose uptake (3H-2-deoxyglucose) in differentiated L6-myotubes, compared to isoproterenol; assay type: cell-based; conditions: compound at 10 μM vs isoproterenol at 10 μM, read-out: Biological example 1: glucose uptake activity compared to that of isoproterenol
Experimental: as §1
Differentiated L6-myotubes were serum-starved overnight in medium containing 0.5% fatty-acid free BSA and stimulated with an agonist, with a final concentration of 1×10^−5 M. After 1 h 40 min the cells were washed with warm glucose free medium or PBS twice and another portion of agonist was added to the glucose free medium. After 20 min the cells were exposed to 50 nM ^3H-2-deoxyglucose for another 10 min before washed in ice cold glucose free medium or PBS three times and lysed in 400 μL/well 0.2 M NaOH for 1 h at 60° C. The cell lysate was mixed with 4 mL scintillation buffer (Emulsifier Safe, Perkin Elmer) and the radioactivity was detected in a p-counter (Tri-Carb 4810TR, Perkin Elmer). The activity for each compound is compared to that of isoproterenol.

CN1CCC(CC(C)(C)NC[C@H](O)c2cccc(F)c2)CC1 [Example 32, (R)-1-(3-Fluorophenyl)-2-((2-methyl-1-(1-methylpiperidin-4-yl)-propan-2-yl)amino)ethan-1-ol dihydrochloride]
Emax at 10 µM (L6-myotubes [1]): < 25% | Emax at 10 µM (L6-myotubes [2]): 50 to 75%

COC(=O)N1CCC[C@@H](CC(C)(C)NC[C@H](O)c2cncc(F)c2)C1 [Example 17, Methyl (S)-3-(2-(((R)-2-(5-fluoropyridin-3-yl)-2-hydroxyethyl)amino)-2-methylpropyl)piperidine-1-carboxylate dihydrochloride]
Emax at 10 µM (L6-myotubes [1]): > 75% | Emax at 10 µM (L6-myotubes [2]): > 75%

CC(C)(CC1CCN(C(=O)C(F)(F)F)CC1)NC[C@H](O)c1cncc(F)c1 [Example 48, (R)-2,2,2-Trifluoro-1-(4-(2-((2-(5-fluoropyridin-3-yl)-2-hydroxyethyl)-amino)-2-methylpropyl)piperidin-1-yl)ethan-1-one dihydrochloride]
Emax at 10 µM (L6-myotubes [1]): < 25% | Emax at 10 µM (L6-myotubes [2]): 50 to 75%

CN(C)C(=O)N1CCC[C@@H](CC(C)(C)NC[C@H](O)c2cncc(F)c2)C1 [Example 18, (S)-3-(2-(((R)-2-(5-Fluoropyridin-3-yl)-2-hydroxyethyl)amino)-2-methylpropyl)-N,N-dimethylpiperidine-1-carboxamide dihydrochloride]
Emax at 10 µM (L6-myotubes [1]): < 25% | Emax at 10 µM (L6-myotubes [2]): > 75%

CC(C)(C[C@@H]1CCCN(C(=O)OC(C)(C)C)C1)NC[C@H](O)c1cccc(C(F)(F)F)n1 [Example 20, tert-Butyl (S)-3-(2-(((S)-2-hydroxy-2-(6-(trifluoromethyl)pyridin-2-yl)-ethyl)amino)-2-methylpropyl)piperidine-1-carboxylate]
Emax at 10 µM (L6-myotubes [1]): < 25% | Emax at 10 µM (L6-myotubes [2]): > 75%

CC(C)(C[C@@H]1CCN(S(C)(=O)=O)C1)NC[C@H](O)c1cncc(F)c1 [Example 71, (R)-1-(5-Fluoropyridin-3-yl)-2-((2-methyl-1-((S)-1-(methylsulfonyl)-pyrrolidin-3-yl)propan-2-yl)amino)ethan-1-ol]
Emax at 10 µM (L6-myotubes [1]): < 25% | Emax at 10 µM (L6-myotubes [2]): > 75%

CC(C)(C[C@@H]1CCCNC1)NC[C@H](O)c1cccc(F)c1 [Example 2, (R)-1-(3-Fluorophenyl)-2-((2-methyl-1-((S)-piperidin-3-yl)propan-2-yl)amino)ethan-1-ol]
Emax at 10 µM (L6-myotubes [1]): 25 to 50% | Emax at 10 µM (L6-myotubes [2]): > 75%

CC(C)(C[C@@H]1CCC(=O)NC1)NC[C@H](O)c1cccc(F)c1 [Example 36, (S)-5-(2-(((R)-2-(3-Fluorophenyl)-2-hydroxyethyl)amino)-2-methyl-propyl)piperidin-2-one hydrochloride]
Emax at 10 µM (L6-myotubes [1]): < 25% | Emax at 10 µM (L6-myotubes [2]): 50 to 75%

CC(=O)N1CCC[C@@H](CC(C)(C)NC[C@H](O)c2cccc(C(F)(F)F)n2)C1 [Example 22, 1-((S)-3-(2-(((S)-2-Hydroxy-2-(6-(trifluoromethyl)pyridin-2-yl)ethyl)-amino)-2-methylpropyl)piperidin-1-yl)ethan-1-one dihydrochloride]
Emax at 10 µM (L6-myotubes [1]): < 25% | Emax at 10 µM (L6-myotubes [2]): > 75%

CC(C)(CN1CCC(C)(NS(C)(=O)=O)CC1)NC[C@H](O)c1cccc(F)c1 [Example 88, (R)—N-(1-(2-((2-(3-Fluorophenyl)-2-hydroxyethyl)amino)-2-methyl-propyl)-4-methylpiperidin-4-yl)methanesulfonamide dihydrochloride]
Emax at 10 µM (L6-myotubes [2]): 50 to 75%

CN1C[C@@H](CC(C)(C)NC[C@H](O)c2cccc(F)c2)CCC1=O [Example 79, (R)-5-(2-(((R)-2-(3-Fluorophenyl)-2-hydroxyethyl)amino)-2-methyl-propyl)-1-methylpiperidin-2-one hydrochloride]
Emax at 10 µM (L6-myotubes [2]): > 75%

CC(=O)NC1(C)CCN(CC(C)(C)NC[C@H](O)c2cccc(F)c2)CC1 [Example 87, (R)—N-(1-(2-((2-(3-Fluorophenyl)-2-hydroxyethyl)amino)-2-methyl-propyl)-4-methylpiperidin-4-yl)acetamide]
Emax at 10 µM (L6-myotubes [2]): 50 to 75%
